Measured values from patent publication US20240229055A9, “MOGROSIDE COMPOSITIONS AND METHODS OF PRODUCING SAME” (Elo Life Systems, priority 2022, published 2024).

What was measured:
[1] = test system: sensory panel of trained judges; assay: Temporal properties: onset of sweetness, time to maximum sweetness, decay after expectorating; format: in vivo, human; settings: 600 ppm, about 6 SEV, in spring water
Procedure: Equi-sweet solutions at about 6 SEV were made in spring water (Ice Mountain, retail) of the following sweeteners: purified mogroside-V (Chem Faces, CFS202202), rebaudioside M (95%, Tate & Lyle, lot #1802-2302-1), rebaudioside A (95%, Tate & Lyle, 210617-01), and monk fruit (50% mogroside V, Tate & Lyle, 45GF220305). Another solution was prepared at about 6 SEV of a blend composed of 80% purified mogroside-V (Chem Faces, CFS202202), 15% 11-oxo-mogroside-V (Chem Faces, CFS202201), and 5% mogroside IIIA-1 (Chem Faces, CFS202201). The concentration of each solution can be found in Table 7.
A set of samples of each solution was evaluated by a panel of 7-9 trained judges. Panelists measured the time to onset of sweetness and time to reach maximum sweetness using a timer. Sweetness decay after expectorating was measured by rating sweetness intensity every 5 seconds on a 15-cm line scale graduated in evenly spaced 5-point increments and labeled low (0) to high (60). […] Blind duplicates were evaluated in a second panel under the same conditions.
A solution of V90 was made at 410 ppm in spring water (Ice Mountain, retail) to be about 6 SEV. […] A panel of 7-8 trained judges evaluated the temporal properties and taste attributes of each sample, including blind duplicates, in the same manner described previously in the Mogroside Blend 80/15/5 Taste Quality sections. […]

[2] = test system: sensory panel of trained judges; assay: Concentration response curve: sweetness intensity scored against sucrose reference standards, Beidler equation fit; format: in vivo, human; settings: for Potency at 5 SEV: room temperature, P=SEV*10,000/C; for Beidler equation SEV=a*C/(b+C): constant b (concentration) / Beidler equation SEV=a*C/(b+C): constant a (maximum SEV): best fitting Beidler equation; for Beidler equation SEV=a*C/(b+C): constant b (concentration): C in ppm or mg/L; for Beidler equation SEV=a*C/(b+C): constant a (maximum SEV): SEV = % sucrose equivalent sweetness
Procedure: A blend composed of 80% purified mogroside-V (Chem Faces, CFS202202), 15% 11-oxo-mogroside-V (Chem Faces, CFS202201), and 5% mogroside IIIA-1 (Chem Faces, CFS202201) was diluted to six different concentrations (from 100 ppm to 650 ppm) in spring water (Ice Mountain, retail). For each solution, a set of five reference standards of sucrose dissolved in water in 0.5% (w/w) concentration increments was also prepared. Each concentration of the mogroside blend was evaluated by 6-8 trained judges. Samples were presented in 4-oz soufflé cups at room temperature, and the test sample was labeled with a random 3-digit code. Panelists tasted the blind-coded sample compared to the set of reference samples to determine the sweetness intensity score to the nearest 0.1 unit. Each concentration was evaluated in duplicate. The sweetness intensity scores were then plotted against the mogroside blend concentration to make a concentration response curve, and the best fitting Beidler equation was generated. […] is a 90% pure mogroside V containing about 6% 11-oxo mogroside-V. Five different concentrations of V90 (Huacheng Bio, LHGE-230401), ranging from 100 ppm to 500 ppm, were diluted in spring water (Ice Mountain, retail). Each dilution was presented to a panel of 7-8 judges experienced in evaluating sweeteners and was accompanied by a range of five sucrose solution reference standards bracketing the sweetness intensity of the test sample in 0.5% (w/w) increments. Panelists assigned a sweetness intensity score to each test sample, including blind duplicates, to the nearest 0.1 unit. All samples were served at room temperature in 4-oz soufflé cups with the test samples labeled with random 3-digit codes. Water and […] crackers were provided for rinsing between samples. Both individual mogrosides were also evaluated at five different concentrations in spring water (Ice Mountain, retail) for sweetness intensity. 11-oxo-mogroside was diluted to concentrations ranging from 200 ppm to 600 ppm and mogroside IIIA-1 was diluted to concentrations from 100 to 500 ppm. For each concentration, a set of five sucrose solution reference standards were prepared in 0.5% (w/w) increments to approximately bracket the sweetness intensity of the test sample. A panel of 6-8 trained judges evaluated each test sample in duplicate, accompanied by the corresponding reference standards, and assigned a sweetness intensity score to the sample to the nearest 0.1 unit. Samples were presented in 4-oz soufflé cups at room temperature, and the test sample was labeled with a random 3-digit code. The sweetness intensity scores were then plotted as a function of mogroside concentration to make a concentration response curve, and the best fitting Beidler equation was generated. P=SEV*10,000/C • where C is the concentration of the mogroside blend in ppm or mg/L and SEV is the % sucrose equivalent sweetness determined by sensory panel.

[3] = test system: sensory panel of experienced judges; assay: Descriptive analysis of sweetener attributes on a 15-cm line scale, low (0) to high (60); format: in vivo, human; settings: about 6 SEV solution, 0=low, 60=high
From the text: The same samples described above were presented to a panel of 6-9 experienced judges for descriptive analysis. Solutions were blind-coded with random 3-digit codes and served at room temperature for evaluation. Panelists individually scored attributes of each sample, such as sweetness intensity, bitterness, astringency, and the presence of side flavors such as licorice or fruitiness. Scores were based on a 15-cm line scale marked with evenly spaced 5-point increments from low (0) to high (60). Samples were evaluated in duplicate. Water and […] crackers were provided for rinsing between samples. A solution of […] was made at 410 ppm in spring water (Ice Mountain, retail) to be about 6 SEV. A second solution was made at about 6 SEV of purified mogroside-V (Chem Faces, CFS202202) at 325 ppm. A panel of 7-8 trained judges evaluated the temporal properties and taste attributes of each sample, including blind duplicates, in the same manner described previously in the Mogroside Blend 80/15/5 Taste Quality sections. The panel also evaluated the intensity of several sensory attributes such as bitterness, astringency, caramel flavor, and fruitiness. The same 15-cm line scale was used for scoring, labeled from low (0) to high (60) with evenly spaced 5-point increments. The samples were served in 4-oz soufflé cups that were labeled with random 3-digit codes. Samples were evaluated at room temperature and included blind duplicates. Water and […] crackers were provided for rinsing between samples. A 400-ppm solution of V90 (Huacheng Bio, LHGE-230401) was tasted as a reference at the beginning of the descriptive analysis session for calibration verification among panelists.

[4] = test system: sensory panel of trained judges; settings: 6 SEV solution of sucrose; cited from earlier work
[5] = in spring water, from Beidler curve

| Compound | Potency at 5 SEV [2, 5] [x] | Beidler equation SEV=a*C/(b+C): constant b (concentration) [2] [ppm] | Beidler equation SEV=a*C/(b+C): constant a (maximum SEV) [2] [SEV] | Astringent, average intensity score [3] | Bitterness, average intensity score [3] | Body, average intensity score [3] | Caramel, average intensity score [3] | Fruity, average intensity score [3] | Licorice, average intensity score [3] | Sweet Linger, average intensity score [3] | Sweetness, average intensity score [3] | further results |
| --- | --- | --- | --- | --- | --- | --- | --- | --- | --- | --- | --- | --- |
| C[C@H](CC[C@@H](O[C@@H]1O[C@H](CO[C@@H]2O[C@H](CO)[C@@H](O)[C@H](O)[C@H]2O)[C@@H](O)[C@H](O)[C@H]1O[C@@H]1O[C@H](CO)[C@@H](O)[C@H](O)[C@H]1O)C(C)(C)O)[C@H]1CC[C@@]2(C)[C@@H]3CC=C4[C@@H](CC[C@H](O)C4(C)C)[C@]3(C)[C@H](O)C[C@]12C [Mogroside IIIA-1, mogroside III-A1] | 71 | 139.9 | 6.00 | – | – | – | – | – | – | – | – | bitter taste still present after expectorating [1]: more than 60 seconds |
| C[C@H](CC[C@@H](O[C@@H]1O[C@H](CO[C@@H]2O[C@H](CO)[C@@H](O)[C@H](O)[C@H]2O)[C@@H](O)[C@H](O)[C@H]1O[C@@H]1O[C@H](CO)[C@@H](O)[C@H](O)[C@H]1O)C(C)(C)O)[C@H]1CC[C@@]2(C)[C@@H]3CC=C4[C@@H](CC[C@H](O[C@@H]5O[C@H](CO[C@@H]6O[C@H](CO)[C@@H](O)[C@H](O)[C@H]6O)[C@@H](O)[C@H](O)[C@H]5O)C4(C)C)[C@]3(C)[C@H](O)C[C@]12C [Mogroside V, mogroside V] | 185 | 920.8 | 22.03 | – | – | – | – | – | – | – | – | times as sweet as sucrose at 5 SEV ([2]; in spring water, listed as purified Mog-V): ~200 times as sweet as sucrose; times as sweet as sucrose at 5 SEV ([2]; in spring water, running text, listed as mogroside V): 185 times as sweet as sucrose; times as sweet as sucrose at 5 SEV ([2]; in spring water, running text, listed as mogroside-V): about 185 times as sweet as sucrose; Potency at 10 SEV ([2]; 10 SEV, in spring water, from Beidler curve, beyond tested concentrations): 131x; Astringent, average intensity score ([3]; listed as Mog·V): 2.5¤; Bitterness, average intensity score ([3]; listed as Mog·V): 1.4¤; Body, average intensity score ([3]; listed as Mog·V): 12.1¤; Caramel, average intensity score ([3]; listed as Mog·V): 4.5¤; Fruity, average intensity score ([3]; listed as Mog·V): 3.0¤; Licorice, average intensity score ([3]; listed as Mog·V): 0.7¤; Sweet Linger, average intensity score ([3]; listed as Mog·V): 14.3¤; Sweetness, average intensity score ([3]; listed as Mog·V): 36.3¤ |
| OC[C@H]1O[C@@](CO)(O[C@H]2O[C@H](CO)[C@@H](O)[C@H](O)[C@H]2O)[C@@H](O)[C@@H]1O [sucrose] | – | – | – | – | – | – | – | – | – | – | – | sweet linger decay time (typical value) [4]: 20 to 25 s |
| C=C1C[C@@]23CC[C@H]4[C@@](C)(CCC[C@@]4(C)C(=O)O[C@@H]4O[C@H](CO)[C@@H](O)[C@H](O[C@@H]5O[C@H](CO)[C@@H](O)[C@H](O)[C@H]5O)[C@H]4O[C@@H]4O[C@H](CO)[C@@H](O)[C@H](O)[C@H]4O)[C@@H]2CC[C@]1(O[C@@H]1O[C@H](CO)[C@@H](O)[C@H](O[C@@H]2O[C@H](CO)[C@@H](O)[C@H](O)[C@H]2O)[C@H]1O[C@@H]1O[C@H](CO)[C@@H](O)[C@H](O)[C@H]1O)C3 [Rebaudioside M, rebaudioside M] | – | – | – | 2.0¤ | 1.7¤ | 11.2¤ | 3.5¤ | 1.6¤ | 1.0¤ | 17.3¤ | 36.4¤ | – |
| C=C1C[C@@]23CC[C@H]4[C@@](C)(CCC[C@@]4(C)C(=O)O[C@@H]4O[C@H](CO)[C@@H](O)[C@H](O)[C@H]4O)[C@@H]2CC[C@]1(O[C@@H]1O[C@H](CO)[C@@H](O)[C@H](O[C@@H]2O[C@H](CO)[C@@H](O)[C@H](O)[C@H]2O)[C@H]1O[C@@H]1O[C@H](CO)[C@@H](O)[C@H](O)[C@H]1O)C3 [Rebaudioside A, rebaudioside A] | – | – | – | 3.7¤ | 11.2¤ | 9.1¤ | 1.9¤ | 1.3¤ | 2.7¤ | 9.6¤ | 35.1¤ | – |
| C[C@H](CC[C@@H](O[C@@H]1O[C@H](CO[C@@H]2O[C@H](CO)[C@@H](O)[C@H](O)[C@H]2O)[C@@H](O)[C@H](O)[C@H]1O[C@@H]1O[C@H](CO)[C@@H](O)[C@H](O)[C@H]1O)C(C)(C)O)[C@H]1CC[C@@]2(C)[C@@H]3CC=C4[C@@H](CC[C@H](O[C@@H]5O[C@H](CO[C@@H]6O[C@H](CO)[C@@H](O)[C@H](O)[C@H]6O)[C@@H](O)[C@H](O)[C@H]5O)C4(C)C)[C@]3(C)C(=O)C[C@]12C [11-oxo-mogroside V] | 28 | 546.3 | 6.56 | – | – | – | – | – | – | – | – | times as sweet as sucrose at 5 SEV ([2]; in spring water, running text, listed as 11-oxo mogroside-V): approximately 28 times as sweet as sucrose; times as sweet as sucrose at 5 SEV ([2]; in spring water, running text, listed as 11-oxo-mogroside-V): 28 times as sweet as sucrose |
